Laboratory results as given in patent EP4781984A1 (Beyang Therapeutics Co., Ltd., priority 2023, dated 2025).

Experiments:
[1] = Ophthalmic formulations based on polyethylene glycol series vehicles: composition and state (Example 7); format: physicochemical
How it was run: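 Compound was dissolved, or nearly dissolved, in PEG 400 by sonication (heated to 50 °C if needed), then mixed into Tris-HCl buffer containing hydroxypropyl-β-cyclodextrin, poloxamer 188 and gellan gum or another viscosity modifier. Physical state was scored visually as solution, near-clear solution, suspension or gel.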

[2] = target: T1, VEGFR3 (Homo sapiens, UniProt P35916); experiment: Kinase inhibitory activity, Mobility Shift Assay (VEGFR3); format: biochemical
T1 construct: purchased Invitrogen PV4129
Experimental: (§1) Assay for Inhibitory Activity of Compounds Against VEGFR and EGFR Kinases
(§2) This assay directly monitors the inhibitory activity of compounds on kinase phosphorylation by measuring non-phosphorylated and phosphorylated substrates in the kinase reaction using Mobility Shift Assays/IMAP™ analysis. Table 2. Reagents and Instruments
(§3) Kinase and DTT were added to 1X kinase buffer to form a 2.5X kinase solution; 10 µL of the 2.5X kinase solution was transferred to a 384-well reaction plate, and 1X kinase buffer was added to the negative control wells. The plate was incubated at room temperature for 10 minutes; FAM-labeled peptide, MgCl2, ATP, and other reagents were added to 1X kinase buffer to form a 2.5X substrate solution; 10 µL of the above 2.5X substrate solution was transferred to the 384-well reaction plate; the plate was incubated at 28°C for varying times, and then 25 µL of stop solution was added to the 384-well reaction plate to terminate the reaction. Conversion rate data were read on a CaliperEZ Reader II. […] IC50 values were fitted using XLFit excel add-in version 5.4.0.8. Y = Bottom + (Top−Bottom)/(1 + […]) [formula]
(§4) X is the log value of compound concentration, Y is the inhibition rate (% inhibition).

[3] = target: T2, VEGFR2 autophosphorylation (pVEGFR2) in HUVEC cells (Homo sapiens, UniProt P35968); experiment: Inhibition of VEGF-induced VEGFR2 phosphorylation in HUVEC cells (ELISA); format: cell-based; conditions: 50 ng/mL human VEGF, compound 1 hour
T2 construct: endogenous in cells; host or cells: HUVEC
Text: Assay for Compound Inhibition of VEGFR2 Phosphorylation in HUVEC Cells
VEGF is a potent growth factor that promotes angiogenesis and vascular permeability. Vascular endothelial growth factor receptor 2 (VEGFR2) is the primary receptor for VEGF-induced endothelial cell signaling. Upon ligand binding, VEGFR2 undergoes autophosphorylation and is activated. The primary function from VEGFR2 signaling is to induce blood vessel formation during development and after tissue injury, and to bypass blocked vessels. Pathologically, VEGF and VEGFR2 are involved in tumor angiogenesis and vascular leakage. They are considered major players in many different cancers and ocular diseases accompanied by pathological neovascularization. This assay uses ELISA to measure the compound's ability to inhibit VEGF-induced VEGFR2 autophosphorylation (pVEGFR2) in HUVEC cells. Table 7. Reagents and Instruments
Before cell seeding, cells reached 60%-80% confluency in cell culture flasks. The cell suspension was diluted with pre-warmed complete medium to 4.5×10^6 cells/mL. 80 microliters of cell suspension was added to all wells of a 96-well cell plate (Corning-3599); incubated overnight at 37°C and 5% CO2. Compound powder was dissolved in DMSO to 10 mM and stored in a nitrogen cabinet. Compound dilution master plate: In a 96-well V-bottom plate (Axygen- WIPP02280), reference compound Ponatinib or test compound concentrations were added, starting from 5 mM (5 microliters of 10 mM compound solution plus 5 microliters DMSO) with 3-fold serial dilutions for a total of 8 concentration points. […] 20 microliters of diluted compound was transferred from the intermediate plate to the cell plate. The cell plate was then incubated at 37°C and 5% CO2 for 1 hour. […] It was gently shaken for 30 seconds, and the absorbance was measured within 30 minutes using a SpectraMax® 340 PC 384 Absorbance Microplate Reader, reading the optical density value at 450 nm. […]
All other values are expressed as a percentage of these controls (inhibition rate). […]

[4] = target: T3, VEGFR2 (Homo sapiens, UniProt P35968); experiment: Kinase inhibitory activity, Mobility Shift Assay (VEGFR2); format: biochemical
T3 construct: purchased Carna 08-191
How it was run: (§5)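 Each kinase pre-incubated 10 min at room temperature, then FAM-labelled peptide with MgCl2 and ATP added; reaction at 28 °C for kinase-dependent times before stop. Substrate conversion read by mobility shift; IC50 from a four-parameter fit of % inhibition against log concentration.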

[5] = target: T4, EGFR (Homo sapiens, UniProt P00533); experiment: Kinase inhibitory activity, Mobility Shift Assay (EGFR); format: biochemical
T4 construct: purchased Carna 08-115
How it was run: as §5

[6] = target: T5, VEGFR1 (Homo sapiens, UniProt P17948); experiment: Kinase inhibitory activity, Mobility Shift Assay (VEGFR1); format: biochemical
T5 construct: purchased Invitrogen PR6731B
Experimental: as §1, §2, §3, §4

[7] = Table 15: 10 mg/mL, Polyethylene glycol 400 10, Hydroxypropyl-β-cyclodextrin 10, Gellan Gum Gelrite 0.3, Poloxamer 188 1, Tris solution and Citric acid
[8] = Table 16: 2 mg/mL, Polyethylene Glycol 400 5, Poloxamer 188 1, Hydroxypropyl-β-cyclodextrin 6, Gellan Gum Gelrite 0.15, Tris-HCl Buffer (pH 6.8) 25mM

T3 sequence (P35968 20-1356): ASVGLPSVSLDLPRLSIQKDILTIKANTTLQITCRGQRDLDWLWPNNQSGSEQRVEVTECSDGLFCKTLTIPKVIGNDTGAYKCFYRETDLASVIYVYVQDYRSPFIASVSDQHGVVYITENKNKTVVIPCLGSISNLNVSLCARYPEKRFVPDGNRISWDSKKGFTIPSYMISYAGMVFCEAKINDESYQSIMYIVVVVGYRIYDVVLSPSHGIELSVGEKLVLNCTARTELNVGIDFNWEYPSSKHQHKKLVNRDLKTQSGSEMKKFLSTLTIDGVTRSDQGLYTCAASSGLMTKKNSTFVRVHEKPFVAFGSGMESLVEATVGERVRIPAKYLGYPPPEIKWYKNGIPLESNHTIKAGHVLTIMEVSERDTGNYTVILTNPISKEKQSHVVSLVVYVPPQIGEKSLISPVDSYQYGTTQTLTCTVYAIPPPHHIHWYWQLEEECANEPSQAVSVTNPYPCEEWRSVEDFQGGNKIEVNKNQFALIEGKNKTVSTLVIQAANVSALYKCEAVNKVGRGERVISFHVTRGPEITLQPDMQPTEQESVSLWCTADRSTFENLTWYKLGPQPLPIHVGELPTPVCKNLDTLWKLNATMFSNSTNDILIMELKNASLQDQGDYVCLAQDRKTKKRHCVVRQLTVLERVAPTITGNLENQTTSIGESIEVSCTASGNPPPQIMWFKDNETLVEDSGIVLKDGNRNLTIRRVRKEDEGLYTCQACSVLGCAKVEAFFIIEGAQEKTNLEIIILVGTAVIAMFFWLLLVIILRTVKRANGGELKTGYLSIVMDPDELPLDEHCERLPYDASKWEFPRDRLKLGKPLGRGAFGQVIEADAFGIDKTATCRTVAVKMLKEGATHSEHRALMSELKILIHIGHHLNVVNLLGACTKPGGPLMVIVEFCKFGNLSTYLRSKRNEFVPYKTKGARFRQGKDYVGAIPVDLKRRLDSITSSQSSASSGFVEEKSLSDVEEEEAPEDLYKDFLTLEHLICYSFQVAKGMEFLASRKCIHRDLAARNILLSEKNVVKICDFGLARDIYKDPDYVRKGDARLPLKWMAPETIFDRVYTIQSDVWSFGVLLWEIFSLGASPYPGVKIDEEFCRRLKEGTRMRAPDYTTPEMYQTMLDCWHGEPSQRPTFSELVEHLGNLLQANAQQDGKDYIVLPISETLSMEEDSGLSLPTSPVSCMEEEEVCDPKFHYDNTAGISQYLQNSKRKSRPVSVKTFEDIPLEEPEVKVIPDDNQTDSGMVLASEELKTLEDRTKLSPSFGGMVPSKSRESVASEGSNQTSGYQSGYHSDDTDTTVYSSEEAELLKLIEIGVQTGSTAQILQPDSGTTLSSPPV
T2 sequence (P35968 20-1356): as above
T4 sequence (P00533 25-1210): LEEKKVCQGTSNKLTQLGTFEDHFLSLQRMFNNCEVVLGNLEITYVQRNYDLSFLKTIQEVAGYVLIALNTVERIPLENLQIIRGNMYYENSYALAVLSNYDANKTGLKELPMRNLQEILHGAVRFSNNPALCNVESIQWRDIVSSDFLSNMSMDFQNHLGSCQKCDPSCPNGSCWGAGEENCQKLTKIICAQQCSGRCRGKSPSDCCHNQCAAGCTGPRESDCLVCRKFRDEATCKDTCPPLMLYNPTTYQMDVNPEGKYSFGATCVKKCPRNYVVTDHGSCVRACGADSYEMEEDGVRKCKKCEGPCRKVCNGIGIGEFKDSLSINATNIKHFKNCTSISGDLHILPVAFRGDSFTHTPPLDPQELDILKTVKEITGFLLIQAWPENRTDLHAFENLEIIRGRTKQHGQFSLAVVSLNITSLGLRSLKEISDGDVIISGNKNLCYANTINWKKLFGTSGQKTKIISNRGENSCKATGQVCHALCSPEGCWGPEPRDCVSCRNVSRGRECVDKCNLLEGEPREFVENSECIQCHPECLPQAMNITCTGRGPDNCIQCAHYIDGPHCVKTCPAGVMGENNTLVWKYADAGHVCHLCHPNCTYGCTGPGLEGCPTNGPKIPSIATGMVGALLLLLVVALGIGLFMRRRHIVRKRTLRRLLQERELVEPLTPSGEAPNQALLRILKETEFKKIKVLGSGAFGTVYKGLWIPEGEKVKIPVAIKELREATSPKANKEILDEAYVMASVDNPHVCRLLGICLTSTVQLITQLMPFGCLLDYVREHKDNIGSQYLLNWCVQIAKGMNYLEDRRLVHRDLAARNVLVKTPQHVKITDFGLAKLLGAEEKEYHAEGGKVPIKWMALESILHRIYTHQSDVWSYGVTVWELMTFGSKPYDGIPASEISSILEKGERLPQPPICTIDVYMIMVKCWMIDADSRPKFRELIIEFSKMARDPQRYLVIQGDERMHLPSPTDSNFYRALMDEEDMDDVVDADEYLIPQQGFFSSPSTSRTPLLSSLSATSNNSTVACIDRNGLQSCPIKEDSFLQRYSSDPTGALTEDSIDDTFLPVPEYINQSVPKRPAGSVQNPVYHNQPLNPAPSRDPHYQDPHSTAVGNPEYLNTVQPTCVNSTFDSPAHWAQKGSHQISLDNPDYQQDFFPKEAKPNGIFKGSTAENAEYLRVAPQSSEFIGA
T5 sequence (P17948 27-1338): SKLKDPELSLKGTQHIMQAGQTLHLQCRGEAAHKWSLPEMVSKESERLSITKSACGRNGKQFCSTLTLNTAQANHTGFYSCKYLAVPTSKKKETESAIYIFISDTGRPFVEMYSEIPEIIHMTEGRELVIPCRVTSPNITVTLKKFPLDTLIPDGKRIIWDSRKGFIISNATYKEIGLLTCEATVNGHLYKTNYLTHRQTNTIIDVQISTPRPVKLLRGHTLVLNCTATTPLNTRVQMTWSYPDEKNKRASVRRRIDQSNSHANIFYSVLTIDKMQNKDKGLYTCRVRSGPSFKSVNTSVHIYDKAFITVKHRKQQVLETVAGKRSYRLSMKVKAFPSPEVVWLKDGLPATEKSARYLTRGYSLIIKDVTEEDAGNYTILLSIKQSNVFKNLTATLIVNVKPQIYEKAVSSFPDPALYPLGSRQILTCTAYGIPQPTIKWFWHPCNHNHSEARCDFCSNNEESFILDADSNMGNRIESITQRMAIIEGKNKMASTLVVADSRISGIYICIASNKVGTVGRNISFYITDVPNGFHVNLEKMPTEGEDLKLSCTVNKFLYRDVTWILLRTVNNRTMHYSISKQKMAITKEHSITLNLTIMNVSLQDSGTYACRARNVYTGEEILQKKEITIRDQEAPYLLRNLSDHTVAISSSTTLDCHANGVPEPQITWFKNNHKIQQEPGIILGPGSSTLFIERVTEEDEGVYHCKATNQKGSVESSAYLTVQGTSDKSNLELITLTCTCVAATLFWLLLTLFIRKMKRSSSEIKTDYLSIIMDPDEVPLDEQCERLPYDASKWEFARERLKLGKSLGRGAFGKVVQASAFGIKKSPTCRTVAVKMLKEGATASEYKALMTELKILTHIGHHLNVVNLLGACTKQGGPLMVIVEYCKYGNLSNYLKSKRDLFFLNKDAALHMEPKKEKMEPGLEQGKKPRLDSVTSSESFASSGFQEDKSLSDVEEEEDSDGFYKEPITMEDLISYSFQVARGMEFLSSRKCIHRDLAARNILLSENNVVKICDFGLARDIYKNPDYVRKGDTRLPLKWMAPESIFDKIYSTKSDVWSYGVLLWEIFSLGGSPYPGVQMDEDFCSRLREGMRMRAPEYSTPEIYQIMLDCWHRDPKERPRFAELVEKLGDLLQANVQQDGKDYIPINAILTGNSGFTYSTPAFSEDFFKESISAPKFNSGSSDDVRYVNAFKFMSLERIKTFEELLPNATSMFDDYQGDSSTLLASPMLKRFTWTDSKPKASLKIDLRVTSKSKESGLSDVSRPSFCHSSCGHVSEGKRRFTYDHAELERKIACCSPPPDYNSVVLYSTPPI

Compound | State Description: pH [1, 7] | State Description: state [1, 7] | Osmolality (mOsm/kg) [1, 8] [mOsm/kg] | State Description: pH [1, 8] | State Description: state [1, 8] | IC50 [2] [nM] | IC50 [3] [nM] | IC50 [4] [nM] | IC50 [5] [nM] | IC50 [6] [nM]
CCNC(=O)c1cc(F)ccc1Sc1ccc2c(/C=C/c3ccc(CN4CCCC4)cn3)n[nH]c2c1 [Compound I-97, N-ethyl-5-fluoro-2-({3-[(E)-2-{5-[(pyrrolidin-1-yl)methyl]pyridin-2-yl}ethenyl]-1H-indazol-6-yl}sulfanyl)benzamide] | ~5.5 | gel | ~300 | ~7 | solution | – | – | – | – | –
O=C(NC1CC1)c1cccc(F)c1Sc1ccc2c(/C=C/c3cnn(CCCN4CCCC4)c3)n[nH]c2c1 [Compound I-44, N-cyclopropyl-3-fluoro-2-({3-[(E)-2-{1-[3-(pyrrolidin-1-yl)propyl]-1H-pyrazol-4-yl}ethenyl]-1H-indazol-6-yl}sulfanyl)benzamide] | – | – | – | – | – | 10 to 100 | 1 to 5 | 1 to 10 | 6000 to 60000 | 1 to 10
